# Measurements as given in patent US20260250320A1, “LIPIDATED PEPTIDE INHIBITORS OF INTERLEUKIN-23 RECEPTOR” (Janssen Pharmaceutica NV, priority 2023, published 2026).
# *1 amine or outer side, *2 acyl side, *3 side chain or, on linkers, in order; H or OH if unused. Where a SMILES comes first, the peptide text is derived from it. Bridges are numbered along the chain shown (N, C = ends). Side-chain parts run from the residue outwards. [ ]: non-standard residue; d: D form. The star is where a group is joined. X36 = C[N+](C)(C)CCOCCOCCC(=O)C[C@H](CCCCCC(=O)COCCOCCNC(=O)COCCOCCNC(=O)CC[C@H](NC(=O)CCCCCCCCCCCCCCCCC(=O)O)C(=O)O)C(=O)*; X17 = O=C(O)CCCCCCCCCCCCCCCCCCC(=O)N[C@@H](CCC(=O)NCCOCCOCCOCCOCCOCCOCCOCCOCCOCCOCCOCCOCCOCC(=O)*)C(=O)O; X32 = O=C(O)CCCCCCCCCCCCCCCCC(=O)N[C@@H](CCC(=O)NCCOCCOCCOCCOCCOCCOCCOCCOCCOCCOCCOCCCOCCC(=O)*)C(=O)O; X13 = O=C(O)CCCCCCCCCCCCCCCCC(=O)NCCOCCOCCOCCOCCOCCOCCOCCOCCOCCOCCOCCOCC(=O)*; X15 = C[N+](C)(C)CCOCCOCCC(=O)C[C@H](CCCCN[*:1])C(=O)[*:2]; Me3N+CH2CH2(OCH2CH2)4CO = C[N+](C)(C)CCOCCOCCOCCOCCC(=O)*; Me3N+(CH2)2O(CH2)2O(CH2)2CO = C[N+](C)(C)CCOCCOCCC(=O)*; PEG12 = NCCOCCOCCOCCOCCOCCOCCOCCOCCOCCOCCOCCOCCC(=O)O; Trp(7-Me,2,3-dihydro) = Cc1cccc2c1NCC2C[C@H](N)C(=O)O; Trp(7-Me) = Cc1cccc2c(C[C@H](N)C(=O)O)c[nH]c12; C20 diacid = O=C(O)CCCCCCCCCCCCCCCCCCC(=O)*; C18 diacid = O=C(O)CCCCCCCCCCCCCCCCC(=O)*; X6 = CN(CC[C@H](N[*:1])C(=O)[*:2])[*:3]; γGlu = O=C(O)[C@H](CCC(=O)[*:2])N[*:1]; 2Nal = N[C@@H](Cc1ccc2ccccc2c1)C(=O)O; AEF = NCCOc1ccc(C[C@H](N)C(=O)O)cc1; X2 = C[N+](C)(C)C[C@@H](CC(=O)O)N*; 3Pal = N[C@@H](Cc1cccnc1)C(=O)O; Lys(Me) = CNCCCC[C@H](N)C(=O)O; NMeK = CN[C@@H](CCCCN)C(=O)O; Pen = CC(C)(S)[C@H](N)C(=O)O; Suc = O=C(CCC(=O)[*:2])[*:1]; Thp = NC1(C(=O)O)CCOCC1; X1 = C[N+](C)(C)CCCCC*; AEEA = NCCOCCOCC(=O)O; Sar = CNCC(=O)O
# Tests used:
# [1] = test system: IL-23-stimulated phosphorylated STAT3 in peripheral blood mononuclear cells (PBMCs); assay: PBMC pSTAT3 Assay; format: cell-based; conditions: PBMCs from healthy donors; 30 min preincubation with peptide; IL-23 5 ng/mL for 30 min; phospho-STAT3 by MSD
# In short: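 Phospho-STAT3 quantified by Meso Scale assay in lysates of PBMCs exposed to IL-23 (5 ng/mL, 30 min, 37 °C) after 30 min peptide pretreatment. Cells were cryopreserved donor PBMCs activated 4 days with anti-CD3 plus IL-1β (100 ng/mL) and starved ~4 h; IC50 reported.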
# [2] = molecular target: T1, IL-23R (Homo sapiens, UniProt Q5VWK5); assay: IL23R Reporter Assay; format: cell-based; conditions: HEK293 cells containing IL-23R, IL-12Rβ1 and STAT-inducible firefly luciferase reporter; 10 ng/mL IL-23 (EC90); 5 h
# T1 construct: HEK293 cells containing IL-23R, IL-12Rβ1 and a firefly luciferase reporter gene driven by a STAT-inducible promoter (Promega); host or cells: HEK293
# T1 sequence (Q5VWK5 24-629): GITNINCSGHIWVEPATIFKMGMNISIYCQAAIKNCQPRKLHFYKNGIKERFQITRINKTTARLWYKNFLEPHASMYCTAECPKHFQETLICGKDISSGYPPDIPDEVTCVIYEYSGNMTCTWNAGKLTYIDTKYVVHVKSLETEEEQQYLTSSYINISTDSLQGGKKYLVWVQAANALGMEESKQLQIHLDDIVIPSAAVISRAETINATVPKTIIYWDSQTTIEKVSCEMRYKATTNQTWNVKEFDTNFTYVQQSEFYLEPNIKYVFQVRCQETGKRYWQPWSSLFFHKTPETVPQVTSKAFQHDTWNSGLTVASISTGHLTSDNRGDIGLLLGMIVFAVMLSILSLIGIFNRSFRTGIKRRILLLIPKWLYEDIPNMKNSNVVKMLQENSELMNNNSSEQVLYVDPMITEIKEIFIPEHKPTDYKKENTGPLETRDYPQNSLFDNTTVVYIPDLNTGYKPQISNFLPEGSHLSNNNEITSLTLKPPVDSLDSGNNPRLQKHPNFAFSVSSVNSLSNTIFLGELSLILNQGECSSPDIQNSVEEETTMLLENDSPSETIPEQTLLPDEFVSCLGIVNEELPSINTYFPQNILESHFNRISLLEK
# In short: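 IC50 values were fitted with a 4-parameter Hill equation to luciferase signal, scaled between IL-23-only wells (0% inhibition) and 30 μM reference inhibitor (100%). The readout was a STAT-inducible reporter in IL-23R/IL-12Rβ1 HEK293 cells, stimulated with added 10 ng/mL IL-23 (EC90) for 5 h at 37° C and developed with BioGlo.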
IC50 [2] [nM],Structure (SMILES),IC50 [1] [nM]
< 50,"CC(=O)N(C)CCCC[C@@H]1NC(=O)[C@H](Cc2c[nH]c3c(C)cccc23)NC(=O)[C@H]([C@@H](C)O)NC(=O)[C@H](CC(=O)N(C)C)NC(=O)[C@@H](NC(=O)[C@@H](CCCCNC(=O)COCCOCCOCCOCCOCCOCCOCCOCCOCCOCCOCCOCCOCCNC(=O)CC[C@H](NC(=O)CCCCCCCCCCCCCCCCCCC(=O)O)C(=O)O)NC(=O)CCOCCOCC[N+](C)(C)C)C(C)(C)SSC(C)(C)[C@@H](C(=O)N[C@@H](Cc2ccc(OCCCCC[N+](C)(C)C)cc2)C(=O)N[C@@H](Cc2ccc3ccccc3c2)C(=O)NC2(C(=O)N[C@@H](CCCCN(C)C(C)=O)C(=O)N[C@@H](CC(N)=O)C(=O)N[C@@H](Cc3cccnc3)C(=O)N(C)CC(=O)N(C)C)CCOCC2)NC1=O [compound 130, cPEG3aCO-k(PEG12gEC20OH)-Pen(3)-N(N(Me)2)-T-7MeW-K(NMeAc)-Pen(3)-TMAPF-2Nal-THP-K(NMeAc)-N-3Pya-Sar-CON(Me)2] ({Me3N+(CH2)2O(CH2)2O(CH2)2CO}-[dK](X17)[Pen]D(NMe2)T[Trp(7-Me)][Lys(Me)](Ac)[Pen]Y(X1)[2Nal][Thp][Lys(Me)](Ac)N[3Pal][Sar]-NMe2; disulfide 2-7)",< 0.5
< 50,"CC(=O)N(C)CCCC[C@@H]1NC(=O)[C@H](Cc2c[nH]c3c(C)cccc23)NC(=O)[C@H]([C@@H](C)O)NC(=O)[C@H](CC(=O)N(C)C)NC(=O)[C@@H](NC(=O)[C@@H](CCCCCC(=O)COCCOCCNC(=O)COCCOCCNC(=O)CC[C@H](NC(=O)CCCCCCCCCCCCCCCCC(=O)O)C(=O)O)CC(=O)CCOCCOCC[N+](C)(C)C)C(C)(C)SSC(C)(C)[C@@H](C(=O)N[C@@H](Cc2ccc(OCCCCC[N+](C)(C)C)cc2)C(=O)N[C@@H](Cc2ccc3ccccc3c2)C(=O)NC2(C(=O)N[C@@H](CCCCN(C)C(C)=O)C(=O)N[C@@H](CC(N)=O)C(=O)N[C@@H](Cc3cccnc3)C(=O)N(C)CC(=O)N(C)C)CCOCC2)NC1=O [compound 131, cPEG3aCO-k(PEG2PEG2gEC18OH)-Pen(3)-N(N(Me)2)-T-7MeW-K(NMeAc)-Pen(3)-TMAPF-2Nal-THP-K(NMeAc)-N-3Pya-Sar-CON(Me)2] (X36-[Pen]D(NMe2)T[Trp(7-Me)][Lys(Me)](Ac)[Pen]Y(X1)[2Nal][Thp][Lys(Me)](Ac)N[3Pal][Sar]-NMe2; disulfide 1-6)",< 0.5
< 50,"CC(=O)N(C)CCCC[C@@H]1NC(=O)[C@H](Cc2c[nH]c3c(C)cccc23)NC(=O)[C@H]([C@@H](C)O)NC(=O)[C@H](CC(=O)N(C)C)NC(=O)[C@@H](NC(=O)[C@@H](CCCCNC(=O)CCOCCOCCOCCOCCOCCOCCOCCOCCOCCOCCOCCOCCNC(=O)CC[C@H](NC(=O)CCCCCCCCCCCCCCCCC(=O)O)C(=O)O)CC(=O)CCOCCOCC[N+](C)(C)C)C(C)(C)SSC(C)(C)[C@@H](C(=O)N[C@@H](Cc2ccc(OCCCCC[N+](C)(C)C)cc2)C(=O)N[C@@H](Cc2ccc3ccccc3c2)C(=O)NC2(C(=O)N[C@@H](CCCCN(C)C(C)=O)C(=O)N[C@@H](CC(N)=O)C(=O)N[C@@H](Cc3cccnc3)C(=O)N(C)CC(=O)N(C)C)CCOCC2)NC1=O [compound 132, cPEG3aCO-k(PEG12gEC18OH)-Pen(3)-N(N(Me)2)-T-7MeW-K(NMeAc)-Pen(3)-TMAPF-2Nal-THP-K(NMeAc)-N-3Pya-Sar-CON(Me)2] ({C18 diacid-γGlu-PEG12}-[X15][Pen]D(NMe2)T[Trp(7-Me)][Lys(Me)](Ac)[Pen]Y(X1)[2Nal][Thp][Lys(Me)](Ac)N[3Pal][Sar]-NMe2; disulfide 2-7)",< 0.5
< 50,"CC(=O)NCCCC[C@@H]1NC(=O)[C@H](Cc2c[nH]c3c(C)cccc23)NC(=O)[C@H]([C@@H](C)O)NC(=O)[C@H](CC(N)=O)NC(=O)[C@@H](NC(=O)[C@@H](CCCNC(=N)N)NC(C)=O)C(C)(C)SSC(C)(C)[C@@H](C(=O)N[C@@H](Cc2ccc(OCCN)cc2)C(=O)N[C@@H](Cc2ccc3ccccc3c2)C(=O)NC2(C(=O)N[C@@H](CCC(=O)O)C(=O)N[C@@H](CC(N)=O)C(=O)N[C@@H](Cc3cccnc3)C(=O)N(C)CC(=O)N[C@@H](CCCCNC(=O)CCOCCCOCCOCCOCCOCCOCCOCCOCCOCCOCCOCCOCCNC(=O)CC[C@H](NC(=O)CCCCCCCCCCCCCCCCC(=O)O)C(=O)O)C(N)=O)CCOCC2)NC1=O [compound 133, MeCO-r-Pen(3)-N-T-7MeW-K(Ac)-Pen(3)-AEF-2Nal-THP-E-N-3Pya-Sar-K(PEG12gEC18OH)-CONH2] (Ac-[dR][Pen]NT[Trp(7-Me)]K(Ac)[Pen][AEF][2Nal][Thp]EN[3Pal][Sar]K(X32)-NH2; disulfide 2-7)",< 0.5
< 50,"CC(=O)NCCCC[C@@H]1NC(=O)[C@H](Cc2c[nH]c3c(C)cccc23)NC(=O)[C@H]([C@@H](C)O)NC(=O)[C@H](CC(N)=O)NC(=O)[C@@H](NC(=O)[C@@H](CCCNC(=N)N)NC(C)=O)C(C)(C)SSC(C)(C)[C@@H](C(=O)N[C@@H](Cc2ccc(OCCN)cc2)C(=O)N[C@@H](Cc2ccc3ccccc3c2)C(=O)NC2(C(=O)N[C@@H](CCC(=O)O)C(=O)N[C@@H](CC(N)=O)C(=O)N[C@@H](Cc3cccnc3)C(=O)N(C)CC(=O)N[C@@H](CCCCNC(=O)CCOCCOCCOCCOCCOCCOCCOCCOCCOCCOCCOCCOCCNC(=O)CC[C@H](NC(=O)CCCCCCCCCCCCCCCCCCC(=O)O)C(=O)O)C(N)=O)CCOCC2)NC1=O [compound 134, MeCO-r-Pen(3)-N-T-7MeW-K(Ac)-Pen(3)-AEF-2Nal-THP-E-N-3Pya-Sar-K(PEG12gEC20OH)-CONH2] (Ac-[dR][Pen]NT[Trp(7-Me)]K(Ac)[Pen][AEF][2Nal][Thp]EN[3Pal][Sar]K([PEG12-γGlu-C20 diacid])-NH2; disulfide 2-7)",< 0.5
50 to 500,"Cc1cccc2c1NCC2C[C@@H]1NC(=O)[C@H]([C@@H](C)O)NC(=O)[C@H](CC(=O)N(C)C)NC(=O)[C@@H](NC(=O)CCOCCOCCOCCOCC[N+](C)(C)C)C(C)(C)SSC(C)(C)[C@@H](C(=O)N[C@@H](Cc2ccc(OCCN)cc2)C(=O)N[C@@H](Cc2ccc3ccccc3c2)C(=O)NC2(C(=O)N[C@@H](CCC(=O)O)C(=O)N[C@@H](CC(N)=O)C(=O)N[C@@H](Cc3cccnc3)C(=O)N(C)[C@@H](CCCCNC(=O)COCCOCCOCCOCCOCCOCCOCCOCCOCCOCCOCCOCCNC(=O)CCCCCCCCCCCCCCCCC(=O)O)C(N)=O)CCOCC2)NC(=O)[C@H](CCN(C)C(=O)CCOCCOCCOCCOCC[N+](C)(C)C)NC1=O (some centres unmarked) [compound 136, cPEG5aCO-Pen(3)-N(N(Me)2)-T-7MeW-Dab(NMecPEG5a)-Pen(3)-AEF-2Nal-THP-E-N-3Pya-NMeK(PEG12C18OH)-CONH2] ({Me3N+CH2CH2(OCH2CH2)4CO}-[Pen]D(NMe2)T[Trp(7-Me,2,3-dihydro)][X6](Me3N+CH2CH2(OCH2CH2)4CO)[Pen][AEF][2Nal][Thp]EN[3Pal][NMeK](X13)-NH2; disulfide 1-6)",0.5 to 5
< 50,"Cc1cccc2c(C[C@@H]3NC(=O)[C@H]([C@@H](C)O)NC(=O)[C@H](CC(=O)N(C)C)NC(=O)[C@@H](NC(=O)COCCOCCNC(=O)COCCOCCNC(=O)CC[C@H](NC(=O)CCCCCCCCCCCCCCCCC(=O)O)C(=O)O)C(C)(C)SSC[C@@H](C(=O)N[C@@H](Cc4ccc(OCCN)cc4)C(=O)N[C@@H](Cc4ccc5ccccc5c4)C(=O)NC4(C(=O)N[C@@H](CCN(C)C(=O)CCC(=O)N[C@H](CC(=O)O)C[N+](C)(C)C)C(=O)N[C@@H](CC(N)=O)C(=O)N[C@@H](Cc5cccnc5)C(=O)N(C)CC(=O)N(C)C)CCOCC4)NC(=O)[C@H](CCN(C)C(=O)CCC(=O)N[C@H](CC(=O)O)C[N+](C)(C)C)NC3=O)c[nH]c12 [compound 138, HOC18gEPEG2PEG2CO-Pen(3)-N(N(Me)2)-T-7MeW-Dab(NMecarn)-Pen(3)-AEF-2Nal-THP-Dab(NMecarn)-N-3Pya-Sar-CON(Me)2] ({C18 diacid-γGlu-AEEA-AEEA}-[Pen]D(NMe2)T[Trp(7-Me)][X6]([Suc-X2])C[AEF][2Nal][Thp][X6]([Suc-X2])N[3Pal][Sar]-NMe2; disulfide 1-6)",< 0.5
